Data reported in patent US20100267796A1, “THERAPEUTIC AGENT FOR IRRITABLE BOWEL SYNDROME” (KYOWA HAKKO KOGYO CO., LTD., priority 2006, published 2010).

Tests used:
[1] = test system: loperamide-induced constipation; experiment: Activity on loperamide-induced constipation; format: in vivo, male SD rats; settings: doses of 0.01, 0.1 and 1 mg/kg p.o. 1 hour before loperamide 5 mg/kg; rats, n=15; vs. control group
Procedure: The therapeutic effect of the compounds of the present application on constipation was evaluated by the method described below. Compound 1-1 was used as a test compound.
To Compound 1-1, 0.5 w/v % methyl cellulose 400 (MC, manufactured by Wako Pure Chemical Industries, Ltd.) was added, followed by lightly mixing with a mixer (TTM-1, Shibata Scientific Technology Ltd.). Then, the resultant mixture was subjected to ultrasonic treatment (1 minute) with an ultrasonic cleaner (Sine Sonic UA100, Hitachi Kokusai Denki Engineering Co., Ltd.), and suspended by re-mixing with the mixer to prepare a suspension at a concentration of 0.2 mg/mL. […]
A day before the test, the rat tails were numbered for identification and the body weights were measured. […] The collected stools were dried (100° C., 6 hours) with a dryer (SH42, Yamato Scientific Co., Ltd.), and the weight was measured with an electronic balance (AB54, Mettler-Toledo AG). […]
With respect to the fecal amount, a dry weight was used, and an amount of stools for 0 to 8 hours was used as a measurement parameter. The fecal pellets were collected in a tare (aluminum foil) whose weight was previously measured, and the weight was calculated by subtracting the weight of the tare from the weight including the tare weight. […]

[2] = test system: adenosine uptake in HEK293 cells; experiment: Adenosine uptake inhibitory activity in HEK293 cells ([3H]adenosine uptake); format: cell-based; settings: Homo sapiens, 1 min, [3H]adenosine uptake relative to 100% of control, HEK293 cells
Procedure: A test was conducted according to the method of Leung et al. [Biochemical Pharmacology, Vol. 70, pp. 355-362 (2005)]. HEK293 cells (ATCC, Registration No. CRL-1537) were subcultured in a Dulbecco's modified Eagle's medium (manufactured by Invitrogen Corporation) containing 10% of fatal calf serum in a CO2 incubator using a poly-L-lysine-coated 10-cm dish (manufactured by Asahi Techno Glass Corporation). The cultured cells were seeded in a poly-L-lysine-coated 24-well plate (manufactured by Asahi Techno Glass Corporation) and cultured until the cells become confluent. […] After incubation at room temperature for 15 minutes, 0.2 mL of a Na^+-free buffer containing 100 nmol/L of [^3H] adenosine (manufactured by GE Health Care Bioscience Corporation) and each compound at each of 50 nmol/L and 500 nmol/L was added to each well. After 1 minute, the reaction solution was removed with an aspirator, and the wells were washed twice with 0.5 mL of ice-cooled PBS (phosphate-buffered saline). Then, 0.5 mL of PBS containing 5% Triton X-100 was added to each well, and the cells were scraped with a scraper. The solution in each well was homogenized by passing through a 20 G injection needle ten times and transferred to a scintillation vial containing 4 mL of clear sol (manufactured by Nacalai Tesque Inc.). Further, the wells were washed with 0.5 mL of PBS containing 5% Triton X-100, and the washing solution was added to the same vial. After sufficient agitation, radioactivity was measured using a liquid scintillation counter (Aloka Co., Ltd., LSC-3500). A relative value to 100% of an uptake of a control was indicated by percentage.

[3] = test system: restraint stress-induced defecation; experiment: Action on restraint stress-induced defecation; format: in vivo, male Wistar rats; settings: 10 mg/kg p.o. 1 hour before restraint stress; measured 1 hour after stress initiation; rats, n=10; control of each sub-table 1.06-1.71 g
Procedure: An experiment was carried out according to the method of Kishibayashi et al. [Japanese Journal of Pharmacology, Vol. 69, No. 4, pp. 495-502 (1993)]. In the experiment, male Wistar rats aged 6 to 7 weeks (supplied from Charles River Laboratories Japan, Inc.) were used. […] The rats were lightly anesthetized with diethyl ether, and the thoracic trunk and the forelimbs were wrapped with a tape to produce mild stress. One hour after stress initiation, the wet weight of fecal pellets was measured. Each drug solution was orally administered 1 hour before restraint stress. A test compound was suspended at a concentration of 2 mg/mL in an aqueous solution of 0.5 w/v % methyl cellulose 400 cP and orally administered at a volume of 5 mL/kg (at a dose of 10 mg/kg). In a control, an aqueous solution of 0.5 w/v % methyl cellulose 400 cP was administered. Ten rats were used in each group. […] YM060, a serotonin 5-HT3 receptor antagonist [The Journal of Pharmacology and Experimental Therapeutics, Vol. 259, No. 2, pp. 815-819 (1991), Astellas Pharma. Inc., online, internet (URL: […].com/jp/companry/news/2006/pdf/060131.pdf)], which is being applied as a therapeutic agent for irritable bowel syndrome, was administered at a dose of 0.1 mg/kg.

For C[C@](O)(C(=O)Nc1cccc2c1C(=O)c1sccc1CS2(=O)=O)C(F)(F)F [Compound 1-1], which “fecal amount (dry weight) 0 to 8 hours after the administration of loperamide” value [1] is on record?
Its value is “significantly inhibits a decrease in fecal amount”.

And the activity at 0.05 µM ([2]; 50 nmol/L compound, n=2)?
Its activity at 0.05 µM is 68%.

What about the activity at 0.5 µM ([2]; 500 nmol/L compound) of the same molecule?
The activity at 0.5 µM was 29%.

And the “Wet weight of fecal pellets” value [3]?
Its value is 0.27 ± 0.06 g.
